These results are taken from ChEMBL document CHEMBL1201862, “PubChem BioAssay data set” (2004).

For assay [1], the target named is Eukaryotic translation initiation factor 4E (Mus musculus, UniProt P63073). The experiment in a line: eIF4E–eIF4G protein interaction inhibitors, dose response, biochemical, TR-FRET (AID 855).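 Also: potency for disrupting eIF4E binding to eIF4GI seen as loss of FRET.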 The assay is classed as functional. On the technique in general: TR-FRET usually uses a lanthanide donor and a delayed reading to cut background.
Assay [2] has as its target T1, Mannose-6-phosphate isomerase (Homo sapiens, UniProt P34949).
T1 sequence (P34949 whole entry): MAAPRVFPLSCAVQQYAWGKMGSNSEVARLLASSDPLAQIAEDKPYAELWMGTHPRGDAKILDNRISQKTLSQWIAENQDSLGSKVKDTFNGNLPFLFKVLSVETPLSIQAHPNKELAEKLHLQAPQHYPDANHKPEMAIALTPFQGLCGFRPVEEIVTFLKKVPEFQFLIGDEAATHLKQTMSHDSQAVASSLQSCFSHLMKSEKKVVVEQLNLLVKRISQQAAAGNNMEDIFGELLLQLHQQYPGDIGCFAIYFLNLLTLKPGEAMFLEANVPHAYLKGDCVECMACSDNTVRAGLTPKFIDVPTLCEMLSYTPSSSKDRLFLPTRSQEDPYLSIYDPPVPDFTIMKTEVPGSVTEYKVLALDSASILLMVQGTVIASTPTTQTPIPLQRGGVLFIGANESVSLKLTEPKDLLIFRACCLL
The experiment in a line: human PMI inhibitors, high substrate, primary screen, biochemical, fluorescence intensity, high mannose 6-phosphate (AID 1220).

Another assay addresses T2, Leucine aminopeptidase (Plasmodium falciparum 3D7, UniProt Q8IL11).
T2 sequence (Q8IL11 whole entry): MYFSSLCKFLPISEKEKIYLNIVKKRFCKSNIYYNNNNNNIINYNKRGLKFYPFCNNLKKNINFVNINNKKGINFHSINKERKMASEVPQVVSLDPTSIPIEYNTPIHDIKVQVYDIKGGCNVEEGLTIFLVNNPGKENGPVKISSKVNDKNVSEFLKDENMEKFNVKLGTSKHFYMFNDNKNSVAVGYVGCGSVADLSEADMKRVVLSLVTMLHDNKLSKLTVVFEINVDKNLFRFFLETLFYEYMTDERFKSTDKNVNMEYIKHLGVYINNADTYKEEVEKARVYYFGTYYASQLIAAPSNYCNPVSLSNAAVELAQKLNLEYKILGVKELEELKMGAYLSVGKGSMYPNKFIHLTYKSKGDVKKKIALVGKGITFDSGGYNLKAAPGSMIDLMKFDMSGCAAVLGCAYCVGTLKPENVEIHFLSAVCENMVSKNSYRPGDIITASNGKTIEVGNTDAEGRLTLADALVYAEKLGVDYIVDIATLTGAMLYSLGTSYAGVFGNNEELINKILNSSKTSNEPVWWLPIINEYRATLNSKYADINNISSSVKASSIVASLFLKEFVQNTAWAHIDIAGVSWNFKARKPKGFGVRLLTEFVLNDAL
The experiment in a line: P. falciparum M17LAP inhibitors, primary screen, biochemical, fluorogenic H-Leu-NHMec substrate, 1536-well (AID 1619). The assay is classed as functional.

The next assay has as its target Cytochrome P450 2C9 (Homo sapiens, UniProt P11712).
For assay [3], the target named is T3, Heat shock factor protein 1 (Mus musculus, UniProt P38532).
T3 sequence (P38532 whole entry): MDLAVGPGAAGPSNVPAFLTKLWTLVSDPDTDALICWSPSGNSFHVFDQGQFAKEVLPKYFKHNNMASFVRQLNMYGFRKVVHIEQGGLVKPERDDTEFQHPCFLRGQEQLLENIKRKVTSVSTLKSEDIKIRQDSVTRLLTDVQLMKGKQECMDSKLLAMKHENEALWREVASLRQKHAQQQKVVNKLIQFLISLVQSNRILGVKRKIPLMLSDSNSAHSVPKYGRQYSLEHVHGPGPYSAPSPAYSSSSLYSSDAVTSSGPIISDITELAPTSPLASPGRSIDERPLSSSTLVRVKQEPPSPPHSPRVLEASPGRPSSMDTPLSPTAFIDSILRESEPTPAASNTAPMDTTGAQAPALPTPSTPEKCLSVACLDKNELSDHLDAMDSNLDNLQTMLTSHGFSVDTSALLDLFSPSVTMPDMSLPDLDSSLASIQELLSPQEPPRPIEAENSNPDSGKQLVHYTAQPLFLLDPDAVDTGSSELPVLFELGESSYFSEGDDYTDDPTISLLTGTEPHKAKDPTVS
Put plainly: HSF1 potentiators in luciferase reporter cells, confirmation, cell-based, NIH3T3, luminescence, dose retest (AID 435004).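 Also: stress induced by proteasome inhibitor MG132 added 30 min after compound; luciferase reporter driven by HSF1 response element in NIH3T3 cells; actives raise luminescence as potentiators of the MG132 stress response.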 Format: functional. (In general: A reporter such as luciferase makes a cellular process visible.)

Assay [4] in a line: A549 cell cytotoxicity, dose response, cytotoxicity control, plate reader, cherry-pick, antagonist series (AID 743412). The assay is classed as functional, cell-based.
Assay [5] is described as follows: MC4R antagonists, dose response, counter-screen for LGR2 antagonist project, cell-based, plate reader, cherry pick (AID 743444).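 Also: transfected HEK 293 cells stimulated with alpha-MSH peptide; potency of inhibitors of the alpha-MSH evoked signal.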 Format: functional. (In general: Counterscreens check selectivity or assay interference.)
A short description of assay [6]: LGR2 antagonists, dose response, cell-based, HEK293, CRE-luciferase reporter, cherry pick, set 2 (AID 743343).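 Also: transfected cells were stimulated with diluted bursicon conditioned medium after compound addition.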 Format: functional.
Assay [7] is described as follows: HEp-2 cell cytotoxicity, dose response, cytotoxicity control for RSV inhibitor project, HTS (AID 2410). The conditions noted are these: human respiratory syncytial virus. The assay is classed as functional.
Assay [8] concerns the target T4, Rac GTPase-activating protein 1 (Homo sapiens, UniProt Q9H0H5).
T4 sequence (Q9H0H5 whole entry): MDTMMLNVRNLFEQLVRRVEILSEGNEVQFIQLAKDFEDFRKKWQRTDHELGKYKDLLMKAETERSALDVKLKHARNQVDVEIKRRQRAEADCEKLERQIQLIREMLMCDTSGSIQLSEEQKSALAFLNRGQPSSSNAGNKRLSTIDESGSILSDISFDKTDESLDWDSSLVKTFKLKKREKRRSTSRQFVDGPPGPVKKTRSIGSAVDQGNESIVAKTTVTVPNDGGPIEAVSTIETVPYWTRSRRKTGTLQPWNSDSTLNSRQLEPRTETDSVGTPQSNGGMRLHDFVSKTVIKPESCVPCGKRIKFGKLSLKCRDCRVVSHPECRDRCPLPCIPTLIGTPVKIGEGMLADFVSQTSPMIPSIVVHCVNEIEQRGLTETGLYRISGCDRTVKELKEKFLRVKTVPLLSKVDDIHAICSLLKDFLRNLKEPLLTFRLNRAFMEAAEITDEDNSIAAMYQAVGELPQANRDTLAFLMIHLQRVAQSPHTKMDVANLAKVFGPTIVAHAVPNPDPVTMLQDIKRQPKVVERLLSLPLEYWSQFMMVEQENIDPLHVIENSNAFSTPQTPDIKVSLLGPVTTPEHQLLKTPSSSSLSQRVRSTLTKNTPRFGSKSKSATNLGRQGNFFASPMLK
The experiment in a line: MgcRacGAP GTPase-activating activity inhibitors, confirmation, biochemical, ADP Hunter fluorescence, primary and confirmatory (AID 624330). Format: functional.

The target in a further assay is Genome polyprotein (dengue virus type 2, UniProt P29990). The experiment in a line: Dengue-2 NS5 methyltransferase inhibitors, primary screen, biochemical, confirmation dose response (AID 588689). Format: functional.
A further assay deals with T5, Aminopeptidase N (Plasmodium falciparum FcB1/Columbia, UniProt O96935).
T5 sequence (O96935 whole entry): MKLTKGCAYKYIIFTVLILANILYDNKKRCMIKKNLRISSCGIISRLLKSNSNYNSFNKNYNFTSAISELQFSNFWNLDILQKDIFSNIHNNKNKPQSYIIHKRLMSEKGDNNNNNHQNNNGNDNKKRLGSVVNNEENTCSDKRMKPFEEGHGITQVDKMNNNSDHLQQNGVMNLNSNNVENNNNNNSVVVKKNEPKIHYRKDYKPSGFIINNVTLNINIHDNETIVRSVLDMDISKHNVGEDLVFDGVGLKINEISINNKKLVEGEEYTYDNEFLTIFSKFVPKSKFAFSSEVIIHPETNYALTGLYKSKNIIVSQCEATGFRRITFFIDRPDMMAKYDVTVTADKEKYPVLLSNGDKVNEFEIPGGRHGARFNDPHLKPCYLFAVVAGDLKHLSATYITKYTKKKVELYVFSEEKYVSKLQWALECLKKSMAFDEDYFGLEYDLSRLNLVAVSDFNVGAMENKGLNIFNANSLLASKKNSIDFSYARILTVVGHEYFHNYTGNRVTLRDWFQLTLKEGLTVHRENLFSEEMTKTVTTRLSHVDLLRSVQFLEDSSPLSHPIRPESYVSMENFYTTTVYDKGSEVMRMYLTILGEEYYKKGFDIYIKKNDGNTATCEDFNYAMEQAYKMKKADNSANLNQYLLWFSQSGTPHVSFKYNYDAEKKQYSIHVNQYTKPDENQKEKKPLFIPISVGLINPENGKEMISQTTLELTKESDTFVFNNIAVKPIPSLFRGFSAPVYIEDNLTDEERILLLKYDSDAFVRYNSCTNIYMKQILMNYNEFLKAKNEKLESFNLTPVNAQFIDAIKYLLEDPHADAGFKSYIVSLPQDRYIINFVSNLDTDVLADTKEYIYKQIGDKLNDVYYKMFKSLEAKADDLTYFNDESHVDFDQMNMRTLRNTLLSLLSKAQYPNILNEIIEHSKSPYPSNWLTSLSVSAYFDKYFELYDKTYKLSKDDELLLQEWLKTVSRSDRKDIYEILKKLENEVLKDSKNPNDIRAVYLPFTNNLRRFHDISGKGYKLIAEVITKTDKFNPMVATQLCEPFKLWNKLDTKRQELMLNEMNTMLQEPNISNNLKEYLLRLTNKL
The experiment in a line: P. falciparum M1AAP inhibitors, biochemical, fluorogenic H-Leu-NHMec substrate, 1536-well (AID 1445). More on the design: species or system Plasmodium falciparum 3D7, 3D7.

The target of a further assay is Large T antigen (Simian virus 40, UniProt P03070). Format: functional, Betapolyomavirus macacae.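 Also: Confirmatory-stage PubChem screen for compounds that inhibit SV40 T antigen.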
Assay [9] has as its system Vero. The experiment in a line: host cell cytotoxicity of antiviral hits, dose response, cytotoxicity control for West Nile virus antiviral project, secondary assay (AID 1650). The conditions noted are these: Chlorocebus sabaeus. Format: functional.
A short description of assay [10]: Luminescence Cell-Based Dose Retest to Confirm Inhibitors of Cancer Stem Cells. [Related pubchem assays (depositor defined):AID2717, AID2721]. Format: functional. The note with it: Homo sapiens.
For assay [11], the system named is Vero. Put plainly: cells. Format: functional. The conditions noted are these: Chlorocebus sabaeus.
Assay [12] in a line: HEK293T cytotoxicity, dose response, cytotoxicity control for miR-122 modulator project, cell-based, inhibitor set, cherry-pick, set 2 (AID 720697). Format: functional.
Assay [13] can be described thus: microbe, parasite or virus in culture. The conditions noted are these: Mycobacterium tuberculosis. Format: functional.
A short description of assay [14]: growth suppression of PTEN-null colon cells, dose response, cell-based, HCT116 PTEN knockout (AID 1047).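 Also: HCT116 colon tumor cells with PTEN knocked out; cells exposed to compound for 60 hours before readout; potency for loss of cell viability measured by luminescence.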 Format: functional.
A short description of assay [15]: growth suppression of beta-catenin-knockout colon cells, dose response, cell-based, HCT116, human colon tumor (AID 1045).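 Also: HCT116 colon tumor cells with beta catenin knocked out; cells exposed to compound for 60 hours.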 Format: functional.

As usually defined, the IC50 is the concentration that gives 50% inhibition. For orientation: AC50 means the concentration at which the activity in the assay is half-maximal. In general, EC50 refers to the midpoint of the concentration-response curve.

Molecules are shown by their SMILES. The source made the active and inactive calls. Some results are limits rather than exact numbers.

Chain of Cytochrome P450 2C9 (P11712 whole entry): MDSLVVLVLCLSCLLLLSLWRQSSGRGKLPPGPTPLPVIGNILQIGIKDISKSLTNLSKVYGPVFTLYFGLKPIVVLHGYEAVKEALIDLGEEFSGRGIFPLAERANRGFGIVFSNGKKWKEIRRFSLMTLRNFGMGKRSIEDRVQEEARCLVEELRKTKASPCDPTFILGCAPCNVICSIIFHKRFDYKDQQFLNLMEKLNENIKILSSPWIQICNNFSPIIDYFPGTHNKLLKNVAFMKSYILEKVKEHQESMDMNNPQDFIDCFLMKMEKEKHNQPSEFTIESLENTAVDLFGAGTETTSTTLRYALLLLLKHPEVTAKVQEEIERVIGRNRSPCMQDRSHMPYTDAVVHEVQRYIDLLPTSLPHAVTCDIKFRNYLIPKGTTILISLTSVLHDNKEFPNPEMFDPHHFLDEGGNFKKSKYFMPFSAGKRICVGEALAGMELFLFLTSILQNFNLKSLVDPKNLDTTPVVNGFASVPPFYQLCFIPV
Chain of Eukaryotic translation initiation factor 4E (P63073 whole entry): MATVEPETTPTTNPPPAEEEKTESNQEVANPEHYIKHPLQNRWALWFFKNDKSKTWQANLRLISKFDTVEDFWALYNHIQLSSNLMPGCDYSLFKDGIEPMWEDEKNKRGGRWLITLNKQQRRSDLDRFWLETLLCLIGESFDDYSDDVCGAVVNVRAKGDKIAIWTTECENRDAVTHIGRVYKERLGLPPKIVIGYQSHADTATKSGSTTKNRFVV
Chain of Genome polyprotein (P29990 2492-3391 limits assumed): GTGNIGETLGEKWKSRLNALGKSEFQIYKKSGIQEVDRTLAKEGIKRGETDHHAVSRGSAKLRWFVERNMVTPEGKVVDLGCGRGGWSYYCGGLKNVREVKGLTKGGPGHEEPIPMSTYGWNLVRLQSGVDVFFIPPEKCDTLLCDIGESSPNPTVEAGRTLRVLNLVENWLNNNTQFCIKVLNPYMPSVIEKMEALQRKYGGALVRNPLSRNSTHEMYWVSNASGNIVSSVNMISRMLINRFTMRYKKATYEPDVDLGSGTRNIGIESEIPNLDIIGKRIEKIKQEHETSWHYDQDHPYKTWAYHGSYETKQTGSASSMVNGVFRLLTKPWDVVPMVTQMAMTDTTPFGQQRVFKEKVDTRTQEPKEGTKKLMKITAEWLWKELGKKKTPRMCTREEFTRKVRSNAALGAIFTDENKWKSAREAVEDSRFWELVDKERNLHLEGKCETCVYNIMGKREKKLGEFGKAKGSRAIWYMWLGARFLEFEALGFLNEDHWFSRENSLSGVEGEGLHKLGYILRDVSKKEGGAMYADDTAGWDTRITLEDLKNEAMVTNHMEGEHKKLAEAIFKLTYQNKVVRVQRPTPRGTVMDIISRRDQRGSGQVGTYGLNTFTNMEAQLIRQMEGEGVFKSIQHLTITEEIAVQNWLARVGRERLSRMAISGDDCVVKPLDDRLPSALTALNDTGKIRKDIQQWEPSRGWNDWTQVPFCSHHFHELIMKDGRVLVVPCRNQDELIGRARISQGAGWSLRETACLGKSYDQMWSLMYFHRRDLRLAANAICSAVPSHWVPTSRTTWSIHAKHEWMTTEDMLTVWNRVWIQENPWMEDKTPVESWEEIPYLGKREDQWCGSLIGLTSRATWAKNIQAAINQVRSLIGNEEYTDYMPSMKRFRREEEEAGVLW
Chain of Large T antigen (P03070 whole entry): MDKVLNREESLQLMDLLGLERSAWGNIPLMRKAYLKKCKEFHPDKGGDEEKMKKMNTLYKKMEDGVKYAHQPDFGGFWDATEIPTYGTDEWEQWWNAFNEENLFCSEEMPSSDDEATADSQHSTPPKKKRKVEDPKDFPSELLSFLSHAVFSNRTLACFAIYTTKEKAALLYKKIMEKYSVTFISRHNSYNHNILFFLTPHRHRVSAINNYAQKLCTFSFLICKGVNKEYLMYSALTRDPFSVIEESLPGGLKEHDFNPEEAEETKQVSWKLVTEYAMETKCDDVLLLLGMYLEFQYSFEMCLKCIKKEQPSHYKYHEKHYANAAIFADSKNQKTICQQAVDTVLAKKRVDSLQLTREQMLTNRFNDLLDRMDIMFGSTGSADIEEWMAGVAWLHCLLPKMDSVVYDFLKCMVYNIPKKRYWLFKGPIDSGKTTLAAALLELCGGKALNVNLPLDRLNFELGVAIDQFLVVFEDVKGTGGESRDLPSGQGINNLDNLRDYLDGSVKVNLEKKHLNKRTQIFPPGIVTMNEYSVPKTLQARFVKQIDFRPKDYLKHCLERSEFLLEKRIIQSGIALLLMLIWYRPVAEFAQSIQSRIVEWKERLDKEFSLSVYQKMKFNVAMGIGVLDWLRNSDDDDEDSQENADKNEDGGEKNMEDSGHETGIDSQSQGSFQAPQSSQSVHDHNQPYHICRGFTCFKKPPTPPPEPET

On to `Nc1nc2c(s1)CCc1c-2cnn1-c1ccccc1`, for which the IC50 in assay [1] is > 64 µM (inactive); in [2], 1.42 µM (active).
`Cc1nc2c([nH]1)OC(N)=C(C#N)C21CCN(Cc2ccccc2)CC1`: the IC50 at Leucine aminopeptidase is 63.2 µM (active).
On to `Cn1c(O)cc(=O)nc1SCC(=O)Nc1ccccc1`, for which the AC50 on Cytochrome P450 2C9 was 2.82 µM (inconclusive). The IC50 at Leucine aminopeptidase was 17.1 µM (active).
As to `COc1ccc(-c2nc(N3CCOCC3)nc3n[nH]c(N)c23)cc1`, the 50% inhibitory concentration (IC50) at Leucine aminopeptidase was 8.11 µM (active).
In the case of `Oc1nc(CSc2ccccn2)nc2c1oc1ccccc12`, the EC50 in assay [3] is > 260 µM (inconclusive). Moreover, the results for the AC50 in [4], in [5] and in assay [6] were > 52 µM (inactive), 6.77 µM (active) and 5.23 µM (active), respectively.
With `CCCCN1C(=O)C2Cc3c([nH]c4ccccc34)CN2C1=S` (centres undefined), in [7], the CC50 was 20.8 µM (active).
The same measure, in the same setting: with `COc1ccc(/C=C/C(=O)Nc2ccc3c(c2)CCC3)cc1OC` the figure was > 50 µM (active).
For `CC1=NOC(=O)/C1=C\c1ccc(-c2ccc(Cl)c(C(=O)O)c2)o1`, the 50% inhibitory concentration (IC50) is 141 µM (active) in [8]; 15.3 µM (active) on Genome polyprotein; 17.4 µM (active) on Aminopeptidase N; > 50 µM (not active) in [2]; 14.2 µM (active) on Large T antigen.
In the case of `Oc1cc(O)c2sc(Nc3ccc(F)cc3)nc2n1`, the IC50 in assay [2] was > 50 µM (not active).
On to `O=C(c1c[nH]c2ccccc12)C(Cl)c1ccccc1` (centres undefined), for which the CC50 is 66.6 µM (active) with Vero [9] and > 25 µM (active) in the assay with Vero [11]. For the same compound, the AC50 in assay [10] is 1.74 µM (active).
For the compound `Cc1nnsc1Sc1cccc(C(F)(F)F)c1`, the AC50 in assay [12] is 8.67 µM (active).
Take `CCCCOc1ccc(C(=O)N/N=C/c2ccc(OCCN3CCCCC3)c(OC)c2)cc1`: the values for the CC50 in [13] and in assay [7] were 18.9 µM (active) and 16.1 µM (active), respectively.
With `CCNC(=O)Nc1ccc2c(c1)C(=O)N(C)[C@@H]1CC[C@H](CC(=O)NCC3CC3)O[C@@H]1CO2`, the AC50 in assay [12] was 0.493 µM (active).
For `C/C=C/c1ccc([C@H]2[C@@H](CO)N(C(=O)C3CC3)[C@H]2CNC(=O)NC(C)C)cc1`, the AC50 in assay [12] was 0.558 µM (active).
For `CCOC(=O)c1ccc(-c2ccc(/C=N/NC(=O)CN(c3ccccc3Br)S(C)(=O)=O)o2)cc1`, the EC50 in assay [14] is 17.8 µM (active); in assay [15] it was 22.5 µM (active). The CC50 in assay [7] was > 50 µM (active).
